Reference: patent publication US20230117034A1, “PYRAZOLOTRIAZINES” (Bayer Aktiengesellschaft, priority 2019, published 2023)

Experiments:
[1] = molecular target: T1, CYCLIN K (nuclear staining in CAL-120 cells) (Homo sapiens, UniProt O75909); assay: CYCLIN K nuclear protein level: immunofluorescence high content analysis (CAL-120); type: cell-based; conditions: 24 h, 50% reduction of nuclear CCNK staining intensity, median, read-out: CYCLIN K degradation IF, DC50-[mol/l] (median)
T1 construct: endogenous in cells; host or cells: CAL-120 human breast cancer cells (DSMZ ACC 459)
How it was run: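 Readout is automated confocal image analysis of nuclear cyclin K immunofluorescence (Hoechst nuclei) after PFA fixation. Cells were CAL-120, exposed to compound dose-response 24 h at 37 °C; values are DC50 for halving nuclear CCNK signal relative to DMSO and control wells.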

[2] = molecular target: T2, CDK12 (nuclear staining in CAL-120 cells) (Homo sapiens, UniProt Q9NYV4); assay: CDK12 nuclear protein level: immunofluorescence/high content analysis (CAL-120); type: cell-based; conditions: for DC50: CAL-120 cells, 24 h, immunofluorescence, 50% reduction of nuclear CDK12 staining intensity, median, read-out: CDK12 degradation IF, DC50- [mol/l] (median); for (IC50 CDK12 high ATP) to (Degradation DC50 CDK12) ratio: ratio of IC50 CDK12 high ATP kinase assay to DC50 CDK12 degradation (IF, CAL-120)
T2 construct: endogenous in cells; host or cells: CAL-120 human breast cancer cells (DSMZ ACC 459)
How it was run: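 DC50 is the degrader concentration that halves nuclear CDK12 immunofluorescence relative to controls, measured by high-content imaging. CAL-120 cells were exposed to compound for 24 h at 37 °C before PFA fixation, and signal was normalized to DMSO and control wells.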

CDK2/CycE = molecular target: T3, CDK2/CycE (Homo sapiens, UniProt P24941); assay: CDK2/CycE kinase assay (TR-FRET, 2 mM ATP); type: biochemical; conditions: 2 mM ATP (high ATP); median; read-out: CDK2/CyclinE, 2 mM ATP (high ATP), IC50 (median)
T3 construct: purchased ProQinase GmbH (Freiburg, Germany); host or cells: insect cells (Sf9)
How it was run: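 Biotin-peptide phosphorylation (0.75 µM substrate, 2 mM ATP final, 25 min, 22 °C) by Sf9-expressed GST-CDK2/GST-CycE, after a 15-min compound pre-binding step. Inhibition scaled between enzyme-free (100%) and uninhibited (0%) wells.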

T2 sequence (Q9NYV4 whole entry): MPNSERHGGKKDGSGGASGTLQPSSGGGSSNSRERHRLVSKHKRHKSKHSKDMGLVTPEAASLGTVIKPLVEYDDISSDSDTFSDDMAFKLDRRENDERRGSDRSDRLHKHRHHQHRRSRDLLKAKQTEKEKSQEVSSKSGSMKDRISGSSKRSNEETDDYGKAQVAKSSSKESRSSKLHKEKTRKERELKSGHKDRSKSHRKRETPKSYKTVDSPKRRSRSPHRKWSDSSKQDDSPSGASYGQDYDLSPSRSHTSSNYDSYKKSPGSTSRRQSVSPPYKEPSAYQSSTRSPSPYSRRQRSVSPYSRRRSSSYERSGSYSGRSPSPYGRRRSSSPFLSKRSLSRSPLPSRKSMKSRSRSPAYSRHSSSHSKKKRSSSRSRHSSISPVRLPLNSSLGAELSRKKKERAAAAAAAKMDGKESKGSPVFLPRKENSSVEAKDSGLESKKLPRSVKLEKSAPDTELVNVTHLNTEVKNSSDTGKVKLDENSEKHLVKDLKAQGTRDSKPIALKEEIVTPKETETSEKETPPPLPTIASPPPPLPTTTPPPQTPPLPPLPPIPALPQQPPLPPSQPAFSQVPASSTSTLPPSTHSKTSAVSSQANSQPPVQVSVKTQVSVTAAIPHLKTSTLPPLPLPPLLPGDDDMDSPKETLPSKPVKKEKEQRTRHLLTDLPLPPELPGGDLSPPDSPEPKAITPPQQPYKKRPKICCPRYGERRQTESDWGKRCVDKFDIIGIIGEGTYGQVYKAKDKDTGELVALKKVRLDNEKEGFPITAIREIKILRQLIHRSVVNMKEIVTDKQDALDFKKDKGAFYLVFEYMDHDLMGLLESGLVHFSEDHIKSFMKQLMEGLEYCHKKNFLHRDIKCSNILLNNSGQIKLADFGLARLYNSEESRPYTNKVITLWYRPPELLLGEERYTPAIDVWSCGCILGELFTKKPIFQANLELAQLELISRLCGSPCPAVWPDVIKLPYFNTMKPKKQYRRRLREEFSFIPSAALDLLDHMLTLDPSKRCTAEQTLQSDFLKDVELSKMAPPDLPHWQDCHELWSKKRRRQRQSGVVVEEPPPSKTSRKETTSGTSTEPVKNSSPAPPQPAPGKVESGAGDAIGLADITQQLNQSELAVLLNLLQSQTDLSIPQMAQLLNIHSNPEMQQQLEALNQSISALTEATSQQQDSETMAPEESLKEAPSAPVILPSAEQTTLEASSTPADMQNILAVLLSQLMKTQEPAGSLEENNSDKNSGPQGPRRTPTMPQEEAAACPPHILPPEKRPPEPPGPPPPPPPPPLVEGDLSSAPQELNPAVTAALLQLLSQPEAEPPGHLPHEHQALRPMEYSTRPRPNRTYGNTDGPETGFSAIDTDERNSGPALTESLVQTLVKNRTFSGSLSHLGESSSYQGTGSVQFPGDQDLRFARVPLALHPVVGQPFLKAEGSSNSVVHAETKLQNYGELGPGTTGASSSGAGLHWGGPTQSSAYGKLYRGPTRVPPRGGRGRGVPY
T2 sequence (O75909 whole entry partner): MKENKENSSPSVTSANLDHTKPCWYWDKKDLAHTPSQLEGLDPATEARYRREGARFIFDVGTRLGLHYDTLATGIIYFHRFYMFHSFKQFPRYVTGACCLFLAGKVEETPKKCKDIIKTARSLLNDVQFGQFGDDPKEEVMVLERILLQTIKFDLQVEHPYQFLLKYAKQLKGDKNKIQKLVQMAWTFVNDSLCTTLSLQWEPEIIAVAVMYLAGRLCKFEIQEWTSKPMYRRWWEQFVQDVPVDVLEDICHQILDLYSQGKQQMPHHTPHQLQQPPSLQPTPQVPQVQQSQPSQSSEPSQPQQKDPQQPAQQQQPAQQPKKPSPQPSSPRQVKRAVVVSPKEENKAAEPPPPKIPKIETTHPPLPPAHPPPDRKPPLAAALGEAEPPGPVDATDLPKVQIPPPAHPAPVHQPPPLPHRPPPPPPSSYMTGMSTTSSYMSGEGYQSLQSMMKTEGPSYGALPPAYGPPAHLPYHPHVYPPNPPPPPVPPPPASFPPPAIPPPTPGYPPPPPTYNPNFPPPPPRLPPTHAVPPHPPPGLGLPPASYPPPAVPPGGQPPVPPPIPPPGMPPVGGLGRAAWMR
T1 sequence (O75909 whole entry): as the sequence (O75909 whole entry partner) above
T1 sequence (Q9NYV4 whole entry partner): as the sequence (Q9NYV4 whole entry) above

DC50 [1] [nM]	DC50 [2] [nM]	(IC50 CDK12 high ATP) to (Degradation DC50 CDK12) ratio [2]	IC50 (CDK2/CycE) [nM]	Structure (SMILES)
0.667	2.16	1196	2550	COc1ccccc1-c1cnc(CNc2nc(N3CCOCC3)nc3c(Br)cnn23)[nH]1 [Example 87, 8-bromo-N-{[5-(2-methoxyphenyl)-1H-imidazol-2-yl]methyl}-2-(morpholin-4-yl)pyrazolo[1,5-a][1,3,5]triazin-4-amine]
1.16	16.3	84	8550	FC(F)(F)c1ccccc1-c1cnc(CNc2nc(N3CCOCC3)nc3c(Br)cnn23)[nH]1 [Example 88, 8-bromo-2-(morpholin-4-yl)-N-({5-[2-(trifluoromethyl)phenyl]-1H-imidazol-2-yl}methyl)pyrazolo[1,5-a][1,3,5]triazin-4-amine]
1.43	7.3	1471	9870	FC(F)(F)Oc1ccccc1-c1cnc(CNc2nc(N3CCOCC3)nc3c(Br)cnn23)[nH]1 [Example 89, 8-bromo-2-(morpholin-4-yl)-N-({5-[2-(trifluoromethoxy)phenyl]-1H-imidazol-2-yl}methyl)pyrazolo[1,5-a][1,3,5]triazin-4-amine]
0.357	4.05	1092	1790	Brc1cnn2c(NCc3ncc(-c4ccccn4)[nH]3)nc(N3CCOCC3)nc12 [Example 90, 8-bromo-2-(morpholin-4-yl)-N-{[5-(pyridin-2-yl)-1H-imidazol-2-yl]methyl}pyrazolo[1,5-a][1,3,5]triazin-4-amine]
19.6	42.8	>133	> 20000	Fc1cccc(-c2cnn3c(NCc4nc5ccccc5[nH]4)nc(N4CCOCC4)nc23)c1 [Example 91, N-[(1H-benzimidazol-2-yl)methyl]-8-(3-fluorophenyl)-2-(morpholin-4-yl)pyrazolo[1,5-a][1,3,5]triazin-4-amine]
0.381	2.36	1378	15600	c1ccc2[nH]c(CNc3nc(N4CCOCC4)nc4c(C5CC5)cnn34)nc2c1 [Example 92, N-[(1H-benzimidazol-2-yl)methyl]-8-cyclopropyl-2-(morpholin-4-yl)pyrazolo[1,5-a][1,3,5]triazin-4-amine]
17.3	23.3	116	10500	c1ccc(-c2nnc(CNc3nc(N4CCOCC4)nc4c(C5CC5)cnn34)[nH]2)cc1 [Example 93, 8-cyclopropyl-2-(morpholin-4-yl)-N-[(5-phenyl-4H-1,2,4-triazol-3-yl)methyl]pyrazolo[1,5-a][1,3,5]triazin-4-amine]
1.57	26.8	679	> 20000	CN1CCN(c2nc(NCc3nc4cc(C(F)(F)F)ccc4[nH]3)n3ncc(C4CC4)c3n2)CC1 [Example 313, 8-cyclopropyl-2-(4-methylpiperazin-1-yl)-N-{[5-(trifluoromethyl)-1H-benzimidazol-2-yl]methyl}pyrazolo[1,5-a][1,3,5]triazin-4-amine]
0.274	0.591	9674	5000	CCc1cnn2c(NCc3nc4c(F)c(F)ccc4[nH]3)nc(N3CCN(C)CC3)nc12.O=CO [Example 435, formic acid N-[(4,5-difluoro-1H-benzimidazol-2-yl)methyl]-8-ethyl-2-(4-methylpiperazin-1-yl)pyrazolo[1,5-a][1,3,5]triazin-4-amine]
